Laboratory results reported in BindingDB's records for patent US20230286970 (Italfarmaco, 2023).

Key:
Assay in all cases: Enzymatic Activity Assay
Histone deacetylase 7 = molecular target: T1, Histone deacetylase 7 (Homo sapiens, UniProt Q8WUI4)
T1 sequence (Q8WUI4 whole entry): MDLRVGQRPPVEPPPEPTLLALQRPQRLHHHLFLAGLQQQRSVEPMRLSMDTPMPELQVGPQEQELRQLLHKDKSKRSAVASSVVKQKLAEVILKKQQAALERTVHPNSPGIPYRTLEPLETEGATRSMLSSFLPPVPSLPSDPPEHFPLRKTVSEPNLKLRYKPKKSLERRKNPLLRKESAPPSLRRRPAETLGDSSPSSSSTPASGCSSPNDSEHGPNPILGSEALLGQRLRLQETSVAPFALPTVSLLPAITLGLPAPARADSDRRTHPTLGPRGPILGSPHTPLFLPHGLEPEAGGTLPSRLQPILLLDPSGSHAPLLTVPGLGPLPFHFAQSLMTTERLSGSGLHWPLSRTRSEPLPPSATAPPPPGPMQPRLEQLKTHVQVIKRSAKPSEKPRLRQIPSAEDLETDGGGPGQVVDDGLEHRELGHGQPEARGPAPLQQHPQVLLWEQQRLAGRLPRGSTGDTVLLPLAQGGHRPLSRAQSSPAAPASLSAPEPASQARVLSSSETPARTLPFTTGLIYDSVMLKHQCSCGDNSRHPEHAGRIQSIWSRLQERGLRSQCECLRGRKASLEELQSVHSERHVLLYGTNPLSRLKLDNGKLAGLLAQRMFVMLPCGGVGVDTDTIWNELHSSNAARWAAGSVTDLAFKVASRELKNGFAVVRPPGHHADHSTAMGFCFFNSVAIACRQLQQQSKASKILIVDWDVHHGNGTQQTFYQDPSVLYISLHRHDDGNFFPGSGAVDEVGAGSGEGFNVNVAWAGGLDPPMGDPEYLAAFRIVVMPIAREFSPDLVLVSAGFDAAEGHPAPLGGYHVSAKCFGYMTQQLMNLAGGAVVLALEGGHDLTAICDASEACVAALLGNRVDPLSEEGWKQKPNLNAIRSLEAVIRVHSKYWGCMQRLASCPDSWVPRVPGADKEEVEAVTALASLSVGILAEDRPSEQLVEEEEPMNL
Procedure: (§1) After a period of preincubation (incubation times and temperatures vary for different isoforms and are shown in table 1) 25 μL of solution containing the substrate were added. […] Enzymatic activity on recombinant human HDAC6 and HDAC1 was evaluated (Table 2) for each synthesized compound.

Histone deacetylase 1 = Histone deacetylase 1 (Homo sapiens, UniProt Q13547)
Chain of Histone deacetylase 1 (Q13547 whole entry): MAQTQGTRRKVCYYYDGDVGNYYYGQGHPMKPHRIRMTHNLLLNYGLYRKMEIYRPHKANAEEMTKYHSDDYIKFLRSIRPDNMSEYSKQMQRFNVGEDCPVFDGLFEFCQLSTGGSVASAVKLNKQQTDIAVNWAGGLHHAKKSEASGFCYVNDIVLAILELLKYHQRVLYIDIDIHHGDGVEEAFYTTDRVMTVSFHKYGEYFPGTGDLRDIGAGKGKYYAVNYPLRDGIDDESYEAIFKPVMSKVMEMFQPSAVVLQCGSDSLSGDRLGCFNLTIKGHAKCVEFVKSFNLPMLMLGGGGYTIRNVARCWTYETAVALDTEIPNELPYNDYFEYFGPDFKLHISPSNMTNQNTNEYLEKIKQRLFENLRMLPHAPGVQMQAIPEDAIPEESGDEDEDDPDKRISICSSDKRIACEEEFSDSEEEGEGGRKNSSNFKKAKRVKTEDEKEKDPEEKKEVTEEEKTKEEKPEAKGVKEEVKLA
Procedure: as §1

Histone deacetylase 3 = Histone deacetylase 3 (Homo sapiens, UniProt O15379)
Chain of Histone deacetylase 3 (O15379 whole entry): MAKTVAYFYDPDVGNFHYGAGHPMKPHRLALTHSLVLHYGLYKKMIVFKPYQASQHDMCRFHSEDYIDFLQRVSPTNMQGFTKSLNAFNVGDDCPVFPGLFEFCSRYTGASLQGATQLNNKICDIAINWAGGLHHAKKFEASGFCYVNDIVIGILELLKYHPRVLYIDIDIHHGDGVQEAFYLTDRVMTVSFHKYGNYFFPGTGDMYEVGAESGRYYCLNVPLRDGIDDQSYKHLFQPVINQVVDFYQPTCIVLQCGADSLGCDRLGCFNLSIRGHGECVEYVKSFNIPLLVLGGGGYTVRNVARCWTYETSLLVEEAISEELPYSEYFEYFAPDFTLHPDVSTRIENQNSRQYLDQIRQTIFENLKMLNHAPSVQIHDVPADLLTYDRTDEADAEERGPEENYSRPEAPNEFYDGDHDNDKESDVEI
Procedure: as §1

Histone deacetylase 4 = Histone deacetylase 4 (Homo sapiens, UniProt P56524)
Chain of Histone deacetylase 4 (P56524 whole entry): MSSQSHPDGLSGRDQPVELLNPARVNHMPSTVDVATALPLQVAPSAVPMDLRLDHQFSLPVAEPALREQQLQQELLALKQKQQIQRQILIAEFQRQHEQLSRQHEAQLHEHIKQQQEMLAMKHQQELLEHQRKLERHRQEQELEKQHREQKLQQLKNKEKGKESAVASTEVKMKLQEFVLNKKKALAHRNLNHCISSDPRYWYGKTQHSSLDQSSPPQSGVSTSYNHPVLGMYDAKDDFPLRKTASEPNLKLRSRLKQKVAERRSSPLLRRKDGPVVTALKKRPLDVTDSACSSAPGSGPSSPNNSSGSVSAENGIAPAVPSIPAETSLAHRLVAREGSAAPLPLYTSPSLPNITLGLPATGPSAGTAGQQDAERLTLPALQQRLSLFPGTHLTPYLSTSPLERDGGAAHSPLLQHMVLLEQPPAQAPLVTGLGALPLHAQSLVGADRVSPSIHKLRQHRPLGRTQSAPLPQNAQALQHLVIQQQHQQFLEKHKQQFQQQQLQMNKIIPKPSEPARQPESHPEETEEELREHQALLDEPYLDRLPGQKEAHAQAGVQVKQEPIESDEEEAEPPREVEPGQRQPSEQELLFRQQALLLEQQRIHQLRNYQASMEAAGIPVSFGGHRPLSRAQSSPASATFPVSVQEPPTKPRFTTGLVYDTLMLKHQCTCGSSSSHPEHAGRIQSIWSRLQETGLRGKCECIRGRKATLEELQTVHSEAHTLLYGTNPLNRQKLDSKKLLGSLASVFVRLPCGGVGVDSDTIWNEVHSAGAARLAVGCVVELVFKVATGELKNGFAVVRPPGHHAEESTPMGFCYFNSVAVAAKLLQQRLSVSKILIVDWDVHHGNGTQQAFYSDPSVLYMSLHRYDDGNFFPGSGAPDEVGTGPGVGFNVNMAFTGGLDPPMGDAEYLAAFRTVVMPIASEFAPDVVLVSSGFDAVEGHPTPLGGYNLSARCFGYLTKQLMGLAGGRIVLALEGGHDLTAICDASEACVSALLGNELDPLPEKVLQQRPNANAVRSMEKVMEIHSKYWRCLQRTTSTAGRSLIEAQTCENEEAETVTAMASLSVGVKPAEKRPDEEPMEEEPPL
Procedure: as §1

IC50 (Histone deacetylase 7)	IC50 (Histone deacetylase 1)	IC50 (Histone deacetylase 3)	IC50 (Histone deacetylase 4)	SMILES
> 30 µM	> 200 µM	> 30 µM	> 30 µM	Nc1nc2ccc(-c3cn(Cc4ccc(-c5nnc(C(F)F)o5)cc4)nn3)cc2s1 [US20230286970, Compound 14]
> 30 µM	> 200 µM	> 30 µM	> 30 µM	Nc1ccc(-c2cn(Cc3ccc(-c4nnc(C(F)F)o4)c(F)c3)nn2)cn1 [US20230286970, Compound 15]
